Measured values reported in PubChem BioAssay (NCI).
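Interpolation was linear, between the two tested concentrations surrounding the appropriate level; five concentrations were tested over 48 hours in 96-well plates. TGI marks complete inhibition of growth.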

Experiments:
Assay in all cases: inhibition of tumour cell growth, NCI panel, 48 h
[1] = test system: DU-145 prostate
[2] = test system: HS 578T breast
[3] = test system: SN12C renal
[4] = test system: K-562 leukemia
[5] = test system: M14 melanoma
[6] = test system: UACC-62 melanoma
[7] = test system: MOLT-4 leukemia
[8] = test system: 786-0 renal
[9] = test system: U251 CNS
[10] = test system: MALME-3M melanoma
[11] = test system: SK-OV-3 ovarian
[12] = test system: SF-295 CNS
[13] = test system: OVCAR-3 ovarian
[14] = test system: SNB-75 CNS
[15] = test system: OVCAR-5 ovarian
[16] = test system: HCT-15 colon
[17] = test system: ACHN renal
[18] = test system: NCI-H226 lung
[19] = test system: HCT-116 colon
[20] = test system: CAKI-1 renal
[21] = test system: PC-3 prostate
[22] = test system: NCI-H23 lung
[23] = test system: MDA-MB-231 breast
[24] = test system: UO-31 renal
[25] = test system: SK-MEL-28 melanoma
[26] = test system: IGROV1 ovarian
[27] = test system: SR leukemia
[28] = test system: A549 NSCLC
[29] = test system: A498 renal
[30] = test system: SK-MEL-2 melanoma
[31] = test system: HL-60(TB) leukemia
[32] = test system: KM12 colon
[33] = test system: BT-549 breast
[34] = test system: UACC-257 melanoma
[35] = test system: SF-539 CNS
[36] = test system: NCI-H460 lung
[37] = test system: OVCAR-4 ovarian
[38] = test system: SW-620 colon
[39] = test system: TK-10 renal
[40] = test system: HT29 colon
[41] = test system: T-47D breast
[42] = test system: SK-MEL-5 melanoma
[43] = test system: OVCAR-8 ovarian
[44] = test system: HOP-62 NSCLC
[45] = test system: MDA-MB-435
[46] = test system: NCI/ADR-RES ovarian
[47] = test system: CCRF-CEM leukemia
[48] = test system: HOP-92 NSCLC
[49] = test system: SNB-19 CNS
[50] = test system: EKVX NSCLC
[51] = test system: LOX IMVI melanoma
[52] = test system: MCF7 breast
[53] = test system: HCC-2998 colon
[54] = test system: COLO 205 colon
[55] = test system: MDA-N

Q: With `Cc1ccc(Cc2nc(=S)[nH][nH]2)cc1` as the molecule, how does the TGI [1] read?
A: > 100 µM

Q: What about the TGI [2] of the same molecule?
A: > 100 µM

Q: What about the TGI [3] of the same molecule?
A: > 100 µM

Q: And the TGI [4]?
A: > 100 µM

Q: What about the TGI [5] of the same molecule?
A: > 100 µM

Q: What about the TGI [6] of the same molecule?
A: > 100 µM

Q: What about the TGI [7] of the same molecule?
A: > 100 µM

Q: What about the TGI [8] of the same molecule?
A: > 100 µM

Q: And the TGI [9]?
A: > 100 µM

Q: And the TGI [10]?
A: > 100 µM

Q: And the TGI [11]?
A: > 100 µM

Q: And the TGI [12]?
A: > 100 µM

Q: What about the TGI [13] of the same molecule?
A: > 100 µM

Q: And the TGI [14]?
A: > 100 µM

Q: And the TGI [15]?
A: > 100 µM

Q: What about the TGI [16] of the same molecule?
A: > 100 µM

Q: What about the TGI [17] of the same molecule?
A: > 100 µM

Q: What about the TGI [18] of the same molecule?
A: > 100 µM

Q: What about the TGI [19] of the same molecule?
A: > 100 µM

Q: And the TGI [20]?
A: > 100 µM

Q: What about the TGI [21] of the same molecule?
A: > 100 µM

Q: And the TGI [22]?
A: > 100 µM

Q: And the TGI [23]?
A: > 100 µM

Q: What about the TGI [24] of the same molecule?
A: > 100 µM

Q: And the TGI [25]?
A: > 100 µM

Q: And the TGI [26]?
A: > 100 µM

Q: What about the TGI [27] of the same molecule?
A: > 100 µM

Q: And the TGI [28]?
A: > 100 µM

Q: What about the TGI [29] of the same molecule?
A: > 100 µM

Q: And the TGI [30]?
A: > 100 µM

Q: And the TGI [31]?
A: 97.9 µM

Q: What about the TGI [32] of the same molecule?
A: > 100 µM

Q: And the TGI [33]?
A: > 100 µM

Q: What about the TGI [34] of the same molecule?
A: > 100 µM

Q: And the TGI [35]?
A: > 100 µM

Q: What about the TGI [36] of the same molecule?
A: > 100 µM

Q: And the TGI [37]?
A: 96.5 µM

Q: What about the TGI [38] of the same molecule?
A: > 100 µM

Q: What about the TGI [39] of the same molecule?
A: > 100 µM

Q: And the TGI [40]?
A: > 100 µM

Q: What about the TGI [41] of the same molecule?
A: > 100 µM

Q: And the TGI [42]?
A: > 100 µM

Q: And the TGI [43]?
A: > 100 µM

Q: And the TGI [44]?
A: > 100 µM

Q: What about the TGI [45] of the same molecule?
A: > 100 µM

Q: What about the TGI [46] of the same molecule?
A: > 100 µM

Q: And the TGI [47]?
A: > 100 µM

Q: And the TGI [48]?
A: > 100 µM

Q: And the TGI [49]?
A: > 100 µM

Q: What about the TGI [50] of the same molecule?
A: > 100 µM

Q: And the TGI [51]?
A: > 100 µM

Q: What about the TGI [52] of the same molecule?
A: > 100 µM

Q: What about the TGI [53] of the same molecule?
A: > 100 µM

Q: And the TGI [54]?
A: > 100 µM

Q: And the TGI [55]?
A: > 100 µM
